Common to all, as to assay type: functional
One assay deals with Escherichia coli. The experiment in a line: Antibacterial activity against Escherichia coli measured after 18 to 20 hrs by broth microdilution method. The settings on record: time 18-20 hrs.
In another assay the test system is Klebsiella aerogenes. The assay is described as follows: Antibacterial activity against Klebsiella aerogenes measured after 18 to 20 hrs by broth microdilution method. The settings on record: time 18-20 hrs. (Dilution methods test growth across graded concentrations, often in twofold steps.)
The subject of a further assay is Klebsiella pneumoniae. The assay is described as follows: Antibacterial activity against Klebsiella pneumoniae measured after 18 to 20 hrs by broth microdilution method. The following applies: time 18-20 hrs.
In the next assay the test system is Salmonella enterica. The experiment in a line: Antibacterial activity against Salmonella enterica measured after 18 to 20 hrs by broth microdilution method. The settings on record: time 18-20 hrs.
The subject of the next assay is Shigella sonnei. The experiment in a line: Antibacterial activity against Shigella sonnei measured after 18 to 20 hrs by broth microdilution method. The settings on record: time 18-20 hrs.
For the next assay, the system named is Brucella anthropi. The assay is described as follows: Antibacterial activity against Ochrobactrum anthropi measured after 18 to 20 hrs by broth microdilution method. The settings on record: time 18-20 hrs.
The test system of assay [1] is Providencia alcalifaciens. The experiment in a line: Antibacterial activity against Providencia alcalifaciens measured after 18 to 20 hrs by broth microdilution method. The following applies: time 18-20 hrs.
In a further assay the test system is Pseudomonas aeruginosa. The assay is described as follows: Antibacterial activity against Pseudomonas aeruginosa measured after 18 to 20 hrs by broth microdilution method. The following applies: time 18-20 hrs.
The test system of another assay is Vibrio cholerae. The assay is described as follows: Antibacterial activity against Vibrio cholerae measured after 18 to 20 hrs by broth microdilution method. The settings on record: time 18-20 hrs.
Assay [2] concerns Yersinia pseudotuberculosis. The experiment in a line: Antibacterial activity against Yersinia pseudotuberculosis measured after 18 to 20 hrs by broth microdilution method. The following applies: time 18-20 hrs.
For another assay, the system named is Bacillus subtilis. The experiment in a line: Antibacterial activity against Bacillus subtilis measured after 18 to 20 hrs by broth microdilution method. The following applies: time 18-20 hrs.
The subject of assay [3] is Staphylococcus epidermidis. The assay is described as follows: Antibacterial activity against Staphylococcus epidermidis measured after 18 to 20 hrs by broth microdilution method. The settings on record: time 18-20 hrs.
Assay [4] concerns Staphylococcus aureus. The assay is described as follows: Antibacterial activity against methicillin-susceptible Staphylococcus aureus measured after 18 to 20 hrs by broth microdilution method. The following applies: time 18-20 hrs.
Assay [5] relates to Staphylococcus aureus. The assay is described as follows: Antibacterial activity against methicillin-resistant Staphylococcus aureus measured after 18 to 20 hrs by broth microdilution method. The following applies: time 18-20 hrs.
Another assay has as its system Listeria ivanovii. The assay is described as follows: Antibacterial activity against Listeria ivanovii ATCC BAA-139 measured after 18 to 20 hrs by broth microdilution method. The following applies: time 18-20 hrs.
Another assay relates to Enterococcus faecium. The assay is described as follows: Antibacterial activity against Enterococcus faecium measured after 18 to 20 hrs by broth microdilution method. The following applies: time 18-20 hrs.
For another assay, the system named is Enterococcus faecalis. The experiment in a line: Antibacterial activity against Enterococcus faecalis measured after 18 to 20 hrs by broth microdilution method. The following applies: time 18-20 hrs.
Assay [6] relates to Mycobacterium tuberculosis. The assay is described as follows: Antibacterial activity against Mycobacterium tuberculosis ATCC 25177 by resazurin microplate assay. For orientation: The colour change of resazurin is a common sign of viable cells or microbes.
Assay [7] deals with Mycolicibacterium smegmatis. The assay is described as follows: Antibacterial activity against Mycobacterium smegmatis ATCC 70084 by resazurin microplate assay.

In brackets after ≈: the same amount, converted by molar mass. Square brackets hold non-standard residues; d marks the D form. Peptide text beside a SMILES is read from it. * marks the point of attachment. Pro(4S-Me) = C[C@@H]1CN[C@H](C(=O)O)C1; Decanoyl = CCCCCCCCCC(=O)*; Valol = CC(C)[C@@H](CO)N*; Aib = CC(C)(N)C(=O)O

Usually MIC stands for the least concentration at which growth counts as inhibited. With `C=C[C@@H]1C[C@H](C)C[C@H](C)[C@H]1c1c(O)ccn(O[C@@H]2C(C(=O)OC)=C[C@@H](O)[C@@H](O)[C@H]2O)c1=O`, the MIC against Escherichia coli was 128 µM (≈ 57.5 µg/mL); with Klebsiella aerogenes it was over 128 µM; against Klebsiella pneumoniae, over 128 µM; with Salmonella enterica, 128 µM (≈ 57.5 µg/mL); against Shigella sonnei, 128 µM (≈ 57.5 µg/mL); with Brucella anthropi, 128 µM (≈ 57.5 µg/mL). Also, the MIC is 128 µM (≈ 57.5 µg/mL) in [1]; over 128 µM in the assay on Pseudomonas aeruginosa; 128 µM (≈ 57.5 µg/mL) with Vibrio cholerae; 128 µM (≈ 57.5 µg/mL) in assay [2]; 128 µM (≈ 57.5 µg/mL) in the assay on Bacillus subtilis; 128 µM (≈ 57.5 µg/mL) in assay [3]. Also, the MIC in the assay on Staphylococcus aureus [4] turned out to be 128 µM (≈ 57.5 µg/mL); with Staphylococcus aureus [5], 128 µM (≈ 57.5 µg/mL); in the assay on Listeria ivanovii, 16 µM (≈ 7.19 µg/mL); in the assay on Enterococcus faecium, 128 µM (≈ 57.5 µg/mL); with Enterococcus faecalis, 128 µM (≈ 57.5 µg/mL); in assay [6], 250 µM (≈ 112 µg/mL). Besides, the MIC in assay [7] is over 250 µM.
Take `CCCCCCCCCC(=O)NC(C)(C)C(=O)N1CCC[C@H]1C(=O)N[C@@H](Cc1ccccc1)C(=O)NC(C)(C)C(=O)N[C@@H](CCC(N)=O)C(=O)N[C@@H](CCC(N)=O)C(=O)NC(C)(C)C(=O)NC(C)(C)C(=O)N[C@@H](CCC(N)=O)C(=O)N[C@@H](CC(C)C)C(=O)N[C@H](CO)C(C)C` (Decanoyl-[Aib]PF[Aib]QQ[Aib][Aib]QL-Valol): the minimum inhibitory concentration (MIC) with Escherichia coli, in the assay with Klebsiella aerogenes, in the assay on Klebsiella pneumoniae, in the assay with Salmonella enterica, in the assay with Shigella sonnei and in the assay on Brucella anthropi was over 128 µM throughout. Also, the MIC in assay [1] was over 128 µM; with Pseudomonas aeruginosa it was over 128 µM; in the assay with Vibrio cholerae, over 128 µM; in assay [2], over 128 µM; with Bacillus subtilis, 8 µM (≈ 10.7 µg/mL); in [3], over 128 µM. Also, the MIC was determined as 8 µM (≈ 10.7 µg/mL) with Staphylococcus aureus [4]; 16 µM (≈ 21.4 µg/mL) with Staphylococcus aureus [5]; 8 µM (≈ 10.7 µg/mL) with Listeria ivanovii; 32 µM (≈ 42.9 µg/mL) with Enterococcus faecium; 32 µM (≈ 42.9 µg/mL) in the assay with Enterococcus faecalis; 20 µM (≈ 26.8 µg/mL) in assay [6]. The same compound displayed an MIC in assay [7] of 80 µM (≈ 107 µg/mL).
Turning to `CCCCCCCCCC(=O)NC(C)(C)C(=O)N1C[C@@H](C)C[C@H]1C(=O)N[C@@H](Cc1ccccc1)C(=O)NC(C)(C)C(=O)N[C@@H](CCC(N)=O)C(=O)N[C@@H](CCC(N)=O)C(=O)NC(C)(C)C(=O)NC(C)(C)C(=O)N[C@@H](CCC(N)=O)C(=O)N[C@@H](CC(C)C)C(=O)N[C@H](CO)C(C)C` (Decanoyl-[Aib][Pro(4S-Me)]F[Aib]QQ[Aib][Aib]QL-Valol), the MIC with Escherichia coli, in the assay on Klebsiella aerogenes, in the assay on Klebsiella pneumoniae, in the assay with Salmonella enterica, with Shigella sonnei and with Brucella anthropi was over 128 µM each time. Besides, the MIC in assay [1] was over 128 µM; against Pseudomonas aeruginosa, over 128 µM; with Vibrio cholerae, over 128 µM; in assay [2], over 128 µM; against Bacillus subtilis, 4 µM (≈ 5.41 µg/mL); in [3], over 128 µM. For the same compound, the MIC in the assay with Staphylococcus aureus [4] amounted to 4 µM (≈ 5.41 µg/mL); with Staphylococcus aureus [5], 16 µM (≈ 21.7 µg/mL); in the assay on Listeria ivanovii, 8 µM (≈ 10.8 µg/mL); with Enterococcus faecium, 16 µM (≈ 21.7 µg/mL); in the assay with Enterococcus faecalis, 16 µM (≈ 21.7 µg/mL); in assay [6] it was 40 µM (≈ 54.1 µg/mL). For the same compound, the MIC in assay [7] stood at 80 µM (≈ 108 µg/mL).
Regarding `O=C(O)c1cn(C2CC2)c2cc(N3CCNCC3)c(F)cc2c1=O` [CIPROFLOXACIN], the MIC in the assay on Escherichia coli was 0.17 µM (≈ 0.0563 µg/mL); in the assay on Klebsiella aerogenes, 2.83 µM (≈ 0.938 µg/mL); against Klebsiella pneumoniae it was 2 µM (≈ 0.663 µg/mL); against Salmonella enterica, 0.05 µM (≈ 0.0166 µg/mL); in the assay with Shigella sonnei, 0.08 µM (≈ 0.0265 µg/mL); in the assay on Brucella anthropi, 0.83 µM (≈ 0.275 µg/mL). Also, the MIC in assay [1] came out at 0.13 µM (≈ 0.0431 µg/mL); against Pseudomonas aeruginosa it was 0.5 µM (≈ 0.166 µg/mL); against Vibrio cholerae, 0.02 µM (≈ 0.00663 µg/mL); in [2] it was 0.14 µM (≈ 0.0464 µg/mL); with Bacillus subtilis it was 0.38 µM (≈ 0.126 µg/mL); in assay [3], 1.33 µM (≈ 0.441 µg/mL). The MIC came to 64 µM (≈ 21.2 µg/mL) in the assay with Staphylococcus aureus [5]; 8 µM (≈ 2.65 µg/mL) in the assay on Listeria ivanovii; 0.67 µM (≈ 0.222 µg/mL) in the assay on Enterococcus faecium; 1 µM (≈ 0.331 µg/mL) in the assay with Enterococcus faecalis; 3.8 µM (≈ 1.26 µg/mL) in assay [7].
For the compound `CO[C@H]1/C=C/O[C@@]2(C)Oc3c(C)c(O)c4c(O)c(c(/C=N/N5CCN(C)CC5)c(O)c4c3C2=O)NC(=O)/C(C)=C\C=C\[C@H](C)[C@H](O)[C@@H](C)[C@@H](O)[C@@H](C)[C@H](OC(C)=O)[C@@H]1C` [RIFAMPIN], the MIC was 4 µM (≈ 3.29 µg/mL) against Escherichia coli; 8 µM (≈ 6.58 µg/mL) against Klebsiella aerogenes; 16 µM (≈ 13.2 µg/mL) against Klebsiella pneumoniae; 2 µM (≈ 1.65 µg/mL) in the assay with Salmonella enterica; 1.67 µM (≈ 1.37 µg/mL) against Shigella sonnei; 4 µM (≈ 3.29 µg/mL) with Brucella anthropi. Also, the minimum inhibitory concentration (MIC) is 8 µM (≈ 6.58 µg/mL) in assay [1]; 53.3 µM (≈ 43.9 µg/mL) against Pseudomonas aeruginosa; over 128 µM in the assay on Vibrio cholerae; 10.7 µM (≈ 8.81 µg/mL) in assay [2]; 0.19 µM (≈ 0.156 µg/mL) against Bacillus subtilis; 0.02 µM (≈ 0.0165 µg/mL) in assay [3]. In addition, the minimal inhibitory concentration (MIC) in the assay with Staphylococcus aureus [4] came to 0.01 µM (≈ 0.00823 µg/mL); in the assay with Staphylococcus aureus [5], 2 µM (≈ 1.65 µg/mL); with Listeria ivanovii it was 0.02 µM (≈ 0.0165 µg/mL); in the assay on Enterococcus faecium, 21.3 µM (≈ 17.5 µg/mL); in the assay with Enterococcus faecalis, 1 µM (≈ 0.823 µg/mL); in assay [6], 0.062 µM (≈ 0.051 µg/mL).

For the origin of these results see ChEMBL document CHEMBL5321256, “Tolypocaibols: Antibacterial Lipopeptaibols from a Tolypocladium sp. Endophyte of the Marine Macroalga Spongomorpha arcta” (2023).
